Laboratory results taken from article PMC6534241 (Drug Delivery, 2019).

How the values were obtained:
[1] = ref Hu et al., 2012; cited from earlier work
[2] = Solubility of drugs in oils/excipients; assay type: physicochemical; conditions: shake flask, 25 °C, 48 h, HPLC, n = 3; Figure S1

CC(=O)O[C@@]12CO[C@@H]1C[C@H](O)[C@@]1(C)C(=O)[C@H](O)C3=C(C)[C@@H](OC(=O)[C@H](O)[C@@H](NC(=O)OC(C)(C)C)c4ccccc4)C[C@@](O)([C@@H](OC(=O)c4ccccc4)[C@H]21)C3(C)C [DTX, Docetaxel]
oral bioavailability of DTX [1]: ~5% | Solubility among the oils employed (ranking) [2]: highest solubility of 131.62 ± 17.68 in Capryol 90
